# Legend:
# [1] = biological target: Prostaglandin G/H synthase 1 (Homo sapiens, UniProt P23219); format: functional
# [2] = biological target: T1, Alpha-2A adrenergic receptor (Homo sapiens, UniProt P08913)
# T1 sequence (P08913 whole entry): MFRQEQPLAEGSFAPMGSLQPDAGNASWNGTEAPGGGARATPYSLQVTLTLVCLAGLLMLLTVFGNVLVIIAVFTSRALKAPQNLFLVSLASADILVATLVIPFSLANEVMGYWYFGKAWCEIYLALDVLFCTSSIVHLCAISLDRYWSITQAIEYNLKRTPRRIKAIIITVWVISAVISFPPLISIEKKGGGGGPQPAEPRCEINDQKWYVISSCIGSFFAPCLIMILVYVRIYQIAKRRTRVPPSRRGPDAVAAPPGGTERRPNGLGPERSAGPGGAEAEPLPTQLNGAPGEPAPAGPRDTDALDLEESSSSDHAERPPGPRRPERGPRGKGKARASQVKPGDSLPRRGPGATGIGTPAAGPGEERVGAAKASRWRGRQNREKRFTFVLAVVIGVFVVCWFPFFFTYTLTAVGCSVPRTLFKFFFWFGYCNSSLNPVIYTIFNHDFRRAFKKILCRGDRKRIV
# [3] = biological target: T2, Alpha-1A adrenergic receptor (Homo sapiens, UniProt P35348); format: functional, cell-based
# T2 sequence (P35348 whole entry): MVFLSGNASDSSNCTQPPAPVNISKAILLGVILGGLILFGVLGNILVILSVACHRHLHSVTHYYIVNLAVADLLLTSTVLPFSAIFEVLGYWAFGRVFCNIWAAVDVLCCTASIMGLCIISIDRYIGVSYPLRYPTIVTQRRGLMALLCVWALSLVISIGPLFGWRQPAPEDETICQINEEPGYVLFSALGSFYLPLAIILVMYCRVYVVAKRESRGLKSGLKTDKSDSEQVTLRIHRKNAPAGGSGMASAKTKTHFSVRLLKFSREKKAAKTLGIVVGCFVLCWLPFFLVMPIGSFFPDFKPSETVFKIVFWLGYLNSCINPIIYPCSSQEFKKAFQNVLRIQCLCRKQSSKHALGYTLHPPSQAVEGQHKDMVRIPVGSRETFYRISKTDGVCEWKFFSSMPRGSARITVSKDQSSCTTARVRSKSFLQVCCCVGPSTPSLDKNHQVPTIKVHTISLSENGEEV
# [4] = biological target: Voltage-gated inwardly rectifying potassium channel KCNH2 (Homo sapiens, UniProt Q12809); format: functional; conditions: read-out: AC50
# [5] = biological target: cGMP-inhibited 3',5'-cyclic phosphodiesterase 3A (Homo sapiens, UniProt Q14432); format: functional
# [6] = biological target: T3, 5-hydroxytryptamine receptor 1A (Homo sapiens, UniProt P08908)
# T3 sequence (P08908 whole entry): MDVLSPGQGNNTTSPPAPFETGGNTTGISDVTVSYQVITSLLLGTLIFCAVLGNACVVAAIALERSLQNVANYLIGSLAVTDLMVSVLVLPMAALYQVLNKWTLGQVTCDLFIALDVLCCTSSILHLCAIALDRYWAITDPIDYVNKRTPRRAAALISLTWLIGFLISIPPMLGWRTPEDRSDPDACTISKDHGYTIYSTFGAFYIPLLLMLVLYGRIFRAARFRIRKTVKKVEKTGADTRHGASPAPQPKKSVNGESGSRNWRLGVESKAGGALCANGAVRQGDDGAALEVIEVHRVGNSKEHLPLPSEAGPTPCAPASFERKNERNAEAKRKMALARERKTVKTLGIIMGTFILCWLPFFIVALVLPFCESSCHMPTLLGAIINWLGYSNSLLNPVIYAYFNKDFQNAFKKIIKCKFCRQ
# D(3) dopamine receptor = D(3) dopamine receptor (Homo sapiens, UniProt P35462)
# Adenosine receptor A3 = biological target: T4, Adenosine receptor A3 (Homo sapiens, UniProt P0DMS8)
# T4 sequence (P0DMS8 whole entry): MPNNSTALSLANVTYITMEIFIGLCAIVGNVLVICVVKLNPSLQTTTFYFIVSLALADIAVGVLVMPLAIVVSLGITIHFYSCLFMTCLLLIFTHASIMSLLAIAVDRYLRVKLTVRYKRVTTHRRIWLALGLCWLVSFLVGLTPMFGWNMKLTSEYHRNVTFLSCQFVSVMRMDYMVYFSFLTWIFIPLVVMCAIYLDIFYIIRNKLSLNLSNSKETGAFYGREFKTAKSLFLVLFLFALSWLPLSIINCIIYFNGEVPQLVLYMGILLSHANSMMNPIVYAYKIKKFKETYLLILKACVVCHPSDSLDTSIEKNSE
# [7] = biological target: T5, Muscarinic acetylcholine receptor M2 (Homo sapiens, UniProt P08172)
# T5 sequence (P08172 whole entry): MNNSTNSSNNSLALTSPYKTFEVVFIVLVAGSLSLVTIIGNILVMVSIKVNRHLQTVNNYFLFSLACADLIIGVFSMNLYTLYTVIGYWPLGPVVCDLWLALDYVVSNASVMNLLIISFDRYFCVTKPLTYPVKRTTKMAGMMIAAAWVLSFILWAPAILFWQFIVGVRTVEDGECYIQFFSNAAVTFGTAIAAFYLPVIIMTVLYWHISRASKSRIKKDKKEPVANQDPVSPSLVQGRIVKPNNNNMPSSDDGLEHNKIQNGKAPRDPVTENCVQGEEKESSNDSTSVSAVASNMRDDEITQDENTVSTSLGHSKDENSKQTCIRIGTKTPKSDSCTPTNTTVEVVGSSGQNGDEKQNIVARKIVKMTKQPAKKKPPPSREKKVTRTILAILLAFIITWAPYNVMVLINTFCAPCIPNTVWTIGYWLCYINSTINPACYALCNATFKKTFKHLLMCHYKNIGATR
# Thromboxane A2 receptor = biological target: T6, Thromboxane A2 receptor (Homo sapiens, UniProt P21731); format: functional, cell-based
# T6 sequence (P21731 whole entry): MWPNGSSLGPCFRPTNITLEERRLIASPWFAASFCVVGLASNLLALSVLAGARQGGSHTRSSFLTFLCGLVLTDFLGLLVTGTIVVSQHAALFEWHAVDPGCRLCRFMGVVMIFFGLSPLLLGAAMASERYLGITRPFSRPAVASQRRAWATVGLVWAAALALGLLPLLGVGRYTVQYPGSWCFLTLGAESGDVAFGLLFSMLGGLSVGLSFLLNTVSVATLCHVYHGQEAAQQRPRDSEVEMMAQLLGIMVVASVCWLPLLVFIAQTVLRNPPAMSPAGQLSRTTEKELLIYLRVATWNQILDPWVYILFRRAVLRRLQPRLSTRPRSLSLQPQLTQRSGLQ
# [8] = biological target: Sodium-dependent dopamine transporter (Homo sapiens, UniProt Q01959)
# [9] = biological target: 3',5'-cyclic-AMP phosphodiesterase 4A (Homo sapiens, UniProt P27815); format: functional
# Note: assay procedure not described here.
# Sodium-dependent dopamine transporter, sequence (Q01959 whole entry): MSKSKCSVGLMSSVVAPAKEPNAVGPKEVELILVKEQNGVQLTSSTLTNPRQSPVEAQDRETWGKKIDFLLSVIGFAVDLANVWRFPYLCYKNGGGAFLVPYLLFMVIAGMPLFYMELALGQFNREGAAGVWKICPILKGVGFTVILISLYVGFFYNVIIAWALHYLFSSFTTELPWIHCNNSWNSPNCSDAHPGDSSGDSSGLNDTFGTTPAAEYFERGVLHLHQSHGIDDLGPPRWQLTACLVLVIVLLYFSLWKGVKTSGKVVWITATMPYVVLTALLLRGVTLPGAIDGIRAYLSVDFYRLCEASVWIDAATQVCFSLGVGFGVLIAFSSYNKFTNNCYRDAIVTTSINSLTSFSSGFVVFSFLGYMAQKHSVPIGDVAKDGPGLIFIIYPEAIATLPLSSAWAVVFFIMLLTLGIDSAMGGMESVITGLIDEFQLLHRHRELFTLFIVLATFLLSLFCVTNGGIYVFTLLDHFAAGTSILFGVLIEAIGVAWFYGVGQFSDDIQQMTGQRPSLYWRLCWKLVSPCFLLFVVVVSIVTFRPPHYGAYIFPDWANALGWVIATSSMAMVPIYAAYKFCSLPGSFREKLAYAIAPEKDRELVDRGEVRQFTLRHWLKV
# 3',5'-cyclic-AMP phosphodiesterase 4A, sequence (P27815 whole entry): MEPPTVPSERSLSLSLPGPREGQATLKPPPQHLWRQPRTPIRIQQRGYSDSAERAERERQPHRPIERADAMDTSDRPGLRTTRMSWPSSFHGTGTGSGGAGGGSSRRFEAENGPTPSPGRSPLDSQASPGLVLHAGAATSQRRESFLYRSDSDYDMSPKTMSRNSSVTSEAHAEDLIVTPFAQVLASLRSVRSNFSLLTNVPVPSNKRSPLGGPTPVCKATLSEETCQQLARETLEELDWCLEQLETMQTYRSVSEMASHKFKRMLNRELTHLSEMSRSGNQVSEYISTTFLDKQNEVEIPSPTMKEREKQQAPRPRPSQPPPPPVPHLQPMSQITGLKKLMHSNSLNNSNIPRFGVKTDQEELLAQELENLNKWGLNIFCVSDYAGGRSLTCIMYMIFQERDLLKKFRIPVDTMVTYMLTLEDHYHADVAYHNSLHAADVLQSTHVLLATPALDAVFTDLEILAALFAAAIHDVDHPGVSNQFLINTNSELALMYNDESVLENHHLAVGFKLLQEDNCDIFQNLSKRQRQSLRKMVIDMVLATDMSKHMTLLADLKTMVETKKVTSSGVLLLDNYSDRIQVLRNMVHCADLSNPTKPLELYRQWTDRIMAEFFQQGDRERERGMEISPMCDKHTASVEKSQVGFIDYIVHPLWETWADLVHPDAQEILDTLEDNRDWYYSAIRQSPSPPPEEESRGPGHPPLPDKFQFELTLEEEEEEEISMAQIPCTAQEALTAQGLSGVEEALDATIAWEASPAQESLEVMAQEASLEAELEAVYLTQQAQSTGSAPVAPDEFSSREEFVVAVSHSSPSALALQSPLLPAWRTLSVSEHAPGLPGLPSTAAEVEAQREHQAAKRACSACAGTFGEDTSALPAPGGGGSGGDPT
# cGMP-inhibited 3',5'-cyclic phosphodiesterase 3A, sequence (Q14432 whole entry): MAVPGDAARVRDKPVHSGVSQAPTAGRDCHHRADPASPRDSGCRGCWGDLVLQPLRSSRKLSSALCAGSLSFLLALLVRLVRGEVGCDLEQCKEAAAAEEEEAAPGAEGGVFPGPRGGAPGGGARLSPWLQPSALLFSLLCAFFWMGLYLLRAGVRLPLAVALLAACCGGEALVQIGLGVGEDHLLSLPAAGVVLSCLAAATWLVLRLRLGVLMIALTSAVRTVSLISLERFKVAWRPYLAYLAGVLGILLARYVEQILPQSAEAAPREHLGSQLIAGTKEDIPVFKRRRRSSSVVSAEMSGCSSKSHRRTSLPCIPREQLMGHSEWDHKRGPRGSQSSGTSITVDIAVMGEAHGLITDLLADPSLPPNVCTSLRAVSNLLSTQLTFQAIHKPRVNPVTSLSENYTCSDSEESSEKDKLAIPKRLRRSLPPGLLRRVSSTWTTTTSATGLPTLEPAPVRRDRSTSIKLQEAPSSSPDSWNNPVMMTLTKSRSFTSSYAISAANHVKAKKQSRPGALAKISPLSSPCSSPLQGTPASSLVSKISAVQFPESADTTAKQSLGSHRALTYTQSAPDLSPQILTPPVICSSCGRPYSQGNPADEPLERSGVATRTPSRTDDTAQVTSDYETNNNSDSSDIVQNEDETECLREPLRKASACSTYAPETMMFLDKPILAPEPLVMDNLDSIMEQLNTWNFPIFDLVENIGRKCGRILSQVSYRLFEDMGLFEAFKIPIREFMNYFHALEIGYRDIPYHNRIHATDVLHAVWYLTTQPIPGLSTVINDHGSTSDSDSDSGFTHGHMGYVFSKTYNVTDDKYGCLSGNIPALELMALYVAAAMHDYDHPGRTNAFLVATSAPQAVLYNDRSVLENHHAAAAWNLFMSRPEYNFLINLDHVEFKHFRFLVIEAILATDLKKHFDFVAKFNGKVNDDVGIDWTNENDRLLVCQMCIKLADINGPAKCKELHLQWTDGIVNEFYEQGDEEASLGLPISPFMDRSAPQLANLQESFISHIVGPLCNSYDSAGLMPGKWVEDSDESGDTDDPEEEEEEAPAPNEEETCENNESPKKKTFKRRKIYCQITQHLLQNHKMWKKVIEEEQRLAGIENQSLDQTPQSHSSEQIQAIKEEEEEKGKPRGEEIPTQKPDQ
# Voltage-gated inwardly rectifying potassium channel KCNH2, sequence (Q12809 whole entry): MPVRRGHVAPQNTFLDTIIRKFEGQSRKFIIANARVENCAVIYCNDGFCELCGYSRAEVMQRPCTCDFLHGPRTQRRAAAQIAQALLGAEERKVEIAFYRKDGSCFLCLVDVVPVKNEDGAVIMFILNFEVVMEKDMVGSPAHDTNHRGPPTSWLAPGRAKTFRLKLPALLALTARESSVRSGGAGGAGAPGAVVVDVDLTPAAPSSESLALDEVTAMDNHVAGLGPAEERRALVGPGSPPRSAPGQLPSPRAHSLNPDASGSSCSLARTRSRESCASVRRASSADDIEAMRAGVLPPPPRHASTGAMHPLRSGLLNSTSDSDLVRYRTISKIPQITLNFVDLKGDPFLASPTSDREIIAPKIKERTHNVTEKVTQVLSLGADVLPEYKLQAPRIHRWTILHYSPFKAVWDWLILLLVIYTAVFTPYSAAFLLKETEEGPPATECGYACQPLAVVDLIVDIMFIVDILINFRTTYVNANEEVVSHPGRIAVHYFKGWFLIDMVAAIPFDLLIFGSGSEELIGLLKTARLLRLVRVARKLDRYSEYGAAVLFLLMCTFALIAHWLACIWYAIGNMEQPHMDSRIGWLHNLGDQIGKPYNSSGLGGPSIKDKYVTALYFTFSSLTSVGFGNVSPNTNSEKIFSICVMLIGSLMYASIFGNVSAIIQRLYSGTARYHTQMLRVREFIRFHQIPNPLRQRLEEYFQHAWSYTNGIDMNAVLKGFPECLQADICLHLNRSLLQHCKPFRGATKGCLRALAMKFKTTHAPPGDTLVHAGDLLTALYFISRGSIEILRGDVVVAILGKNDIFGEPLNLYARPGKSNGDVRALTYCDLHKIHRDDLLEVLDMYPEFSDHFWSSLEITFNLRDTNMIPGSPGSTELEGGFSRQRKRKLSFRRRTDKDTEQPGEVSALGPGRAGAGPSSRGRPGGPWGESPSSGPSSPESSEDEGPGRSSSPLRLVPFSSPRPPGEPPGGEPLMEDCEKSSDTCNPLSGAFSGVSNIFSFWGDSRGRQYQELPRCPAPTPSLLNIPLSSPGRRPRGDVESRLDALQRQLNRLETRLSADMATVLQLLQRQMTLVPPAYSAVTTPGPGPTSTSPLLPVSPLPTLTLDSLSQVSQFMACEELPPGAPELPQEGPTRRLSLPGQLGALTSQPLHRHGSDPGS
# Prostaglandin G/H synthase 1, sequence (P23219 whole entry): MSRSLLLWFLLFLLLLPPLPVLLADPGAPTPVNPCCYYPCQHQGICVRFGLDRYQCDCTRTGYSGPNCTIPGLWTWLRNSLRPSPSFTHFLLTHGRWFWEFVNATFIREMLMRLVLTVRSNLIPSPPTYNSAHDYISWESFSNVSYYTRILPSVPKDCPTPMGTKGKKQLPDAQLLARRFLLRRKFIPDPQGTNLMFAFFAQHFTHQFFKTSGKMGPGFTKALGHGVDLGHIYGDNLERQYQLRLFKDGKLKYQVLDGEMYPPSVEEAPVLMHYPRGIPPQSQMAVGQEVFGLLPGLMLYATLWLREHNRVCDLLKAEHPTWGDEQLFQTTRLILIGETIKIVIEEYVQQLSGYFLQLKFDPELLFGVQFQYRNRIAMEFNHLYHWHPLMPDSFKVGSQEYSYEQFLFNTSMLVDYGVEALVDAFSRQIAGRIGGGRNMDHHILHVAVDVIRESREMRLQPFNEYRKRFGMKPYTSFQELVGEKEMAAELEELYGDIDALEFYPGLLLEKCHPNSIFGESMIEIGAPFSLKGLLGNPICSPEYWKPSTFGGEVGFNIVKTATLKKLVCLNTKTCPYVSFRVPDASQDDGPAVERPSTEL
# D(3) dopamine receptor, sequence (P35462 whole entry): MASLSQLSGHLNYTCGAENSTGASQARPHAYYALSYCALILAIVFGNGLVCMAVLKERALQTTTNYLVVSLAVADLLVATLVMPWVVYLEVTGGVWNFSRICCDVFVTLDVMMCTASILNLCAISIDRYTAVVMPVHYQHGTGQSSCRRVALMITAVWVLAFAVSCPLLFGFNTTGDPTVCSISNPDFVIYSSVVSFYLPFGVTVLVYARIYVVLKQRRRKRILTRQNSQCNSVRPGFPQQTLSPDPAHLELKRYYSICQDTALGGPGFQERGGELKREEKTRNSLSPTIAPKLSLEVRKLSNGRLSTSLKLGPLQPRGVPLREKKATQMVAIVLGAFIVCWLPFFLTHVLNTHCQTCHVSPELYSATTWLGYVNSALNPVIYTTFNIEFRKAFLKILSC
structure (smiles),measurement,setting,value
Cc1ccc(Cl)c(Nc2ccccc2C(=O)O)c1Cl [MECLOFENAMIC ACID],AC50,[1],0.0171 µM
same,AC50,[2],> 30 µM
same,AC50,[3],> 30 µM
same,AC50,[4],> 30 µM
same,AC50,[5],> 30 µM
same,AC50,[6],> 30 µM
same,AC50,D(3) dopamine receptor,> 30 µM
same,AC50,Adenosine receptor A3,29.6 µM
same,AC50,[7],> 30 µM
same,AC50,Thromboxane A2 receptor,20 µM
same,AC50,[8],> 30 µM
same,AC50,[9],25.5 µM
C[C@@H]1CN(c2c(F)c(N)c3c(=O)c(C(=O)O)cn(C4CC4)c3c2F)C[C@H](C)N1 [SPARFLOXACIN],AC50,[1],> 30 µM
same,AC50,[2],> 30 µM
same,AC50,[3],> 30 µM
same,AC50,[4],6.8 µM
same,AC50,[5],> 30 µM
same,AC50,[6],> 30 µM
same,AC50,D(3) dopamine receptor,> 30 µM
same,AC50,Adenosine receptor A3,> 30 µM
same,AC50,[7],> 30 µM
same,AC50,Thromboxane A2 receptor,> 30 µM
same,AC50,[8],> 30 µM
same,AC50,[9],> 30 µM
COC(=O)N[C@H](C(=O)N1CC2(CC2)C[C@H]1c1ncc(-c2ccc3c(c2)C(F)(F)c2cc(-c4ccc5nc([C@@H]6[C@H]7CC[C@H](C7)N6C(=O)[C@@H](NC(=O)OC)C(C)C)[nH]c5c4)ccc2-3)[nH]1)C(C)C,AC50,[1],> 30 µM
same,AC50,[2],> 30 µM
same,AC50,[3],> 30 µM
same,AC50,[4],> 30 µM
same,AC50,[5],> 30 µM
same,AC50,[6],> 30 µM
same,AC50,D(3) dopamine receptor,> 10 µM
same,AC50,Adenosine receptor A3,> 10 µM
same,AC50,[7],> 30 µM
same,AC50,Thromboxane A2 receptor,> 30 µM
same,AC50,[8],> 30 µM
same,AC50,[9],> 30 µM
C#C[C@]1(OC(C)=O)CC[C@H]2[C@@H]3CCC4=CC(=O)CC[C@@H]4[C@H]3CC[C@@]21C [NORETHINDRONE ACETATE],AC50,[1],> 30 µM
same,AC50,[2],> 30 µM
same,AC50,[3],> 30 µM
same,AC50,[4],> 30 µM
same,AC50,[5],> 30 µM
same,AC50,[6],> 30 µM
same,AC50,D(3) dopamine receptor,> 30 µM
same,AC50,Adenosine receptor A3,0.838 µM
same,AC50,[7],9.44 µM
same,AC50,Thromboxane A2 receptor,9.74 µM
same,AC50,[8],> 30 µM
same,AC50,[9],> 30 µM
Cc1cnc(C(=O)O)c[n+]1[O-] [ACIPIMOX],AC50,[1],> 30 µM
same,AC50,[2],> 30 µM
same,AC50,[3],> 30 µM
same,AC50,[4],> 30 µM
same,AC50,[5],> 30 µM
same,AC50,[6],> 30 µM
same,AC50,D(3) dopamine receptor,> 30 µM
same,AC50,Adenosine receptor A3,> 30 µM
same,AC50,[7],> 30 µM
same,AC50,Thromboxane A2 receptor,> 30 µM
same,AC50,[8],> 30 µM
same,AC50,[9],> 30 µM
CCOc1ccc(Cc2nccc3cc(OCC)c(OCC)cc23)cc1OCC [ETHAVERINE],AC50,[1],> 10 µM
same,AC50,[2],20.9 µM
same,AC50,[3],> 30 µM
same,AC50,[4],13 µM
same,AC50,[5],3.69 µM
same,AC50,[6],> 30 µM
same,AC50,D(3) dopamine receptor,25.5 µM
same,AC50,Adenosine receptor A3,3.11 µM
same,AC50,[7],> 30 µM
same,AC50,Thromboxane A2 receptor,14.1 µM
same,AC50,[8],> 30 µM
same,AC50,[9],0.466 µM
Cc1ccc2c([nH]c(=O)c3c(=O)cc(C(=O)OCCC(C)C)oc32)c1C,AC50,[1],21.3 µM
same,AC50,[2],> 30 µM
same,AC50,[3],> 30 µM
same,AC50,[4],23 µM
same,AC50,[5],> 30 µM
same,AC50,[6],> 30 µM
same,AC50,D(3) dopamine receptor,> 30 µM
same,AC50,Adenosine receptor A3,0.0521 µM
same,AC50,[7],11.8 µM
same,AC50,Thromboxane A2 receptor,> 30 µM
same,AC50,[8],> 30 µM
same,AC50,[9],> 30 µM
Cc1cn(-c2cc(NC(=O)c3ccc(C)c(Nc4nccc(-c5cnccn5)n4)c3)cc(C(F)(F)F)c2)cn1 [RADOTINIB],AC50,[1],> 30 µM
same,AC50,[2],> 30 µM
same,AC50,[3],> 30 µM
same,AC50,[4],> 30 µM
same,AC50,[5],> 3 µM
same,AC50,[6],> 30 µM
same,AC50,D(3) dopamine receptor,> 30 µM
same,AC50,Adenosine receptor A3,0.298 µM
same,AC50,[7],> 30 µM
same,AC50,Thromboxane A2 receptor,> 30 µM
same,AC50,[8],> 30 µM
same,AC50,[9],> 30 µM
COC(=O)Nc1nc2cc(C(=O)c3ccc(F)cc3)ccc2[nH]1 [FLUBENDAZOLE],AC50,[1],> 30 µM
same,AC50,[2],> 30 µM
same,AC50,[3],> 30 µM
same,AC50,[4],> 30 µM
same,AC50,[5],> 30 µM
same,AC50,[6],> 30 µM
same,AC50,D(3) dopamine receptor,> 30 µM
same,AC50,Adenosine receptor A3,8.69 µM
same,AC50,[7],> 30 µM
same,AC50,Thromboxane A2 receptor,> 30 µM
same,AC50,[8],> 30 µM
same,AC50,[9],> 30 µM
NS(=O)(=O)c1cc2c(cc1Cl)NC(C(Cl)Cl)NS2(=O)=O (centres undefined) [TRICHLORMETHIAZIDE],AC50,[1],> 30 µM
same,AC50,[2],> 30 µM
same,AC50,[3],> 30 µM
same,AC50,[5],> 30 µM
same,AC50,[6],> 30 µM
same,AC50,D(3) dopamine receptor,> 30 µM
same,AC50,Adenosine receptor A3,> 30 µM
same,AC50,[7],> 30 µM
same,AC50,Thromboxane A2 receptor,> 30 µM
same,AC50,[8],> 30 µM
same,AC50,[9],> 30 µM

# — ChEMBL document CHEMBL5291721, “A preclinical secondary pharmacology resource illuminates target-adverse drug reaction associations of marketed drugs” (Nat Commun, 2023)
